Publication PMC11614538, “The proline-rich antimicrobial peptide B7-005: low bacterial resistance, safe for human cells and effective in zebrafish embryo bacteraemia model” (Open Biology, 2024)
Residues, ends and D or L forms follow the SMILES beside them.

Tests used:
[1] = tested on: E. coli ATCC 25922; test: MIC against E. coli ATCC 25922 in the presence of human serum; assay type: cell-based, Escherichia coli
Experimental: Escherichia coli ATCC 25922 was purchased from the American Type Culture Collection (ATCC) (Manassas, Virginia, USA) and stored at −80°C as glycerol stock until use. Bacterial cultures were grown overnight in sterile Müller–Hinton broth (MHB) (Difco Inc.) at 37°C under agitation (140 r.p.m.). The next day, the cultures were diluted 1 : 30 in new MHB and incubated as described above for about 2 h (mean logarithmic phase) until they reached an optical density at 600 nm of about 0.3 and then diluted in fresh MHB to the desired concentrations.
The effects of human serum on the antimicrobial activity of B7-005 were assessed by performing a minimum inhibitory concentration (MIC) assay with some modifications. Non-heat-inactivated human serum (Merk Life Science S.r.l., USA) was diluted to 50%, 40%, 30%, 25%, and 20% (v/v) in MHB and the solutions were aliquoted into the wells of a round-bottomed 96-well microtitre plate (Sarstedt, Milan, Italy). Samples with no serum were used for comparison. B7-005 was diluted in MHB added with the proper amount of serum to a concentration of 128 μM, added to the first column of the plate and serially diluted twofold in MHB, added with the proper amount of serum, in the subsequent wells in a final volume of 50 μl. Then 50 μl of a mid-log suspension of 5 × 10^5 CFU ml^−1 E. coli ATCC 25922 cells prepared in MHB added with the proper amount of serum was added to each well of the plate, halving the final concentration of bacteria and peptide. The plate was incubated at 37°C for 18 h. The MIC value was calculated as the lowest concentration of the compound resulting in complete inhibition of visible bacterial growth. MIC values were determined by performing at least three independent experiments (n ≥ 3).

[2] = tested on: MEC-1 cells; test: Cell viability MTT, MEC-1; assay type: cell-based, human; settings: MEC-1, 24 h, RPMI, n ≥ 9
Experimental: Chronic lymphocytic leukaemia-derived MEC-1 cells were cultured in suspension using complete RPMI (EuroClone), supplemented with 100 U ml^−1 penicillin (Sigma), 100 μg ml^−1 streptomycin (Sigma), 2 mM L-glutamine and 10% (v/v) foetal bovine serum (FBS, EuroClone). A549 human lung carcinoma epithelial cells and immortalized human keratinocytes (HaCaT) were grown in adhesion in complete high glucose Dulbecco’s MEM (DMEM, EuroClone) supplemented with 100 U ml^−1 penicillin (Sigma), […] streptomycin (Sigma), 2 mM L-glutamine and 10% (v/v) of FBS. […] All cell lines were counted in a Bürker chamber and diluted to the desired working concentrations.
Cell viability was evaluated by tetrazolium salt (MTT, or MTS for HUVECs only) tests. […] The next day, absorbance was measured at 570 nm using a Nanoquant Infinite-M200Pro plate reader (Tecan, Switzerland).
HUVECs, 7500 cells per well, were seeded in HESFM with 10% FBS in a 96-well flat-bottomed microtitre plate (EuroClone SpA, Italy). […] The plate was then incubated for 2 h at 37°C in a humidified 5% CO2 atmosphere, and the absorbance was measured at 490 nm, using a spectrophotometer (PowerWaveX, Bio-Tek Instruments). The cytotoxicity was calculated by comparing the absorbance of peptide-treated samples with that of the untreated control and expressed in percentage of vitality. […]

[3] = tested on: a human cell line; settings: ref [20]; cited from earlier work
From the text: In a previous work, we systematically modified Bac7(1-16), an active N-terminal fragment of the natural PrAMP full-length Bac7 [19], to identify the amino acid residues essential for inhibiting protein synthesis, with the goal to discover new derivatives with improved antimicrobial activity. […] B7-005 ...

CC[C@H](C)[C@H](NC(=O)[C@H](CCCNC(=N)N)NC(=O)[C@@H](N)Cc1c[nH]c2ccccc12)C(=O)N[C@@H](CCCNC(=N)N)C(=O)N[C@@H](CCCNC(=N)N)C(=O)N[C@@H](CCCNC(=N)N)C(=O)N[C@@H](Cc1c[nH]c2ccccc12)C(=O)N1CCC[C@H]1C(=O)N[C@@H](CCCNC(=N)N)C(=O)N[C@@H](CC(C)C)C(=O)N1CCC[C@H]1C(=O)N[C@@H](CCCNC(=N)N)C(=O)N1CCC[C@H]1C(=O)N[C@@H](CCCNC(=N)N)C(=O)N[C@@H](Cc1c[nH]c2ccccc12)C(=O)N[C@@H](CCCNC(=N)N)C(=O)O [B7-005] (H-WRIRRRWPRLPRPRWR-OH)
MIC of B7-005 ([1]; 0% human serum in MH medium, visual, 18 h at 37°C, mode of n = 3): 1 µM | MIC of B7-005 ([1]; 20% (v/v) human serum in MH medium, 18 h at 37°C, mode of n = 3): 2 µM | MIC of B7-005 ([1]; 20–30% (v/v) human serum): 2 µM | MIC of B7-005 ([1]; 25% (v/v) human serum in MH medium, 18 h at 37°C, mode of n = 3): 2 µM | MIC of B7-005 ([1]; 30% (v/v) human serum in MH medium, 18 h at 37°C, mode of n = 3): 2 µM | MIC of B7-005 ([1]; 40% (v/v) human serum in MH medium, 18 h at 37°C, mode of n = 3): 4 µM | MIC of B7-005 ([1]; 50% (v/v) human serum in MH medium, 18 h at 37°C, mode of n = 3): 8 µM | IC50 [2]: ~48 µM | cytotoxicity relative to Bac7(1-16) [3]: did not increase cytotoxicity relative to Bac7(1-16)
